Measured values taken from the NIST ThermoML archive (doi:10.1016/j.tca.2012.12.008).

Assay: xn = mol fraction of the nth substance listed
Details: 101 kPa, Liquid; for viscosity: Capillary tube (Ostwald / Ubbelohde) method; for mass density: Vibrating tube method

CCC(C)=O [butanone] + CC(C)O
Details | mass density, 298.15 K [kg/m3] | mass density, 303.15 K [kg/m3] | mass density, 308.15 K [kg/m3] | mass density, 313.15 K [kg/m3] | viscosity, 298.15 K [mPa·s] | viscosity, 303.15 K [mPa·s] | viscosity, 308.15 K [mPa·s] | viscosity, 313.15 K [mPa·s]
x1 = 0.0819 | 782.25 | 777.85 | 772.94 | 768.48 | 1.657 | 1.503 | 1.371 | 1.245
x1 = 0.1607 | 783.38 | 778.97 | 774.09 | 769.53 | 1.358 | 1.286 | 1.208 | 1.139
x1 = 0.24 | 784.62 | 780.11 | 775.17 | 770.66 | 1.142 | 1.11 | 1.077 | 1.041
x1 = 0.349 | 786.42 | 781.79 | 776.85 | 772.33 | 0.939 | 0.924 | 0.909 | 0.895
x1 = 0.4405 | 788.05 | 783.31 | 778.38 | 773.86 | 0.818 | 0.807 | 0.795 | 0.784
x1 = 0.5593 | 790.28 | 785.48 | 780.55 | 776.07 | 0.702 | 0.686 | 0.669 | 0.654
x1 = 0.6511 | 792.07 | 787.24 | 782.38 | 777.9 | 0.626 | 0.607 | 0.587 | 0.569
x1 = 0.7392 | 793.87 | 789.03 | 784.21 | 779.74 | 0.551 | 0.539 | 0.527 | 0.515
x1 = 0.8496 | 796.19 | 791.36 | 786.58 | 782.16 | 0.465 | 0.456 | 0.448 | 0.44
x1 = 0.937 | 798.09 | 793.22 | 788.46 | 784.11 | 0.417 | 0.406 | 0.396 | 0.386
x1 = 1 | 799.48 | 794.63 | 789.9 | 785.52 | 0.381 | 0.368 | 0.352 | 0.339

CCC(C)=O [butanone] + CCC(C)O
Details | mass density, 298.15 K [kg/m3] | mass density, 303.15 K [kg/m3] | mass density, 308.15 K [kg/m3] | mass density, 313.15 K [kg/m3] | viscosity, 298.15 K [mPa·s] | viscosity, 303.15 K [mPa·s] | viscosity, 308.15 K [mPa·s] | viscosity, 313.15 K [mPa·s]
x1 = 0.0833 | 801.7 | 797.1 | 792.46 | 788.12 | 2.502 | 2.135 | 1.832 | 1.525
x1 = 0.161 | 800.91 | 796.26 | 791.63 | 787.2 | 2.081 | 1.791 | 1.571 | 1.359
x1 = 0.2402 | 800.19 | 795.56 | 790.81 | 786.44 | 1.749 | 1.533 | 1.355 | 1.206
x1 = 0.3498 | 799.4 | 794.77 | 789.93 | 785.56 | 1.428 | 1.284 | 1.143 | 1.018
x1 = 0.441 | 798.92 | 794.27 | 789.42 | 785.03 | 1.213 | 1.078 | 0.976 | 0.895
x1 = 0.5609 | 798.55 | 793.86 | 789.01 | 784.61 | 0.981 | 0.886 | 0.82 | 0.76
x1 = 0.6498 | 798.44 | 793.74 | 788.83 | 784.44 | 0.824 | 0.768 | 0.706 | 0.664
x1 = 0.7398 | 798.47 | 793.74 | 788.83 | 784.43 | 0.671 | 0.638 | 0.603 | 0.572
x1 = 0.8501 | 798.73 | 793.92 | 789.09 | 784.68 | 0.528 | 0.506 | 0.486 | 0.465
x1 = 0.9405 | 799.06 | 794.23 | 789.47 | 785.05 | 0.434 | 0.417 | 0.397 | 0.38
x1 = 1 | 799.48 | 794.63 | 789.9 | 785.52 | 0.381 | 0.368 | 0.352 | 0.339
